The record followed here is patent publication US20250215029A1 (Recludix Pharma, Inc., priority 2022, published 2025).

A value given as a limit tells only on which side of the number the result lay.

For this experiment, the target named is T1, pY705-STAT3 in PBMC (Homo sapiens, UniProt P40763).
T1 construct: Cryopreserved Peripheral Blood Mononuclear Cells (PBMC) are from AllCells; host or cells: cryopreserved PBMC
T1 sequence (P40763 whole entry): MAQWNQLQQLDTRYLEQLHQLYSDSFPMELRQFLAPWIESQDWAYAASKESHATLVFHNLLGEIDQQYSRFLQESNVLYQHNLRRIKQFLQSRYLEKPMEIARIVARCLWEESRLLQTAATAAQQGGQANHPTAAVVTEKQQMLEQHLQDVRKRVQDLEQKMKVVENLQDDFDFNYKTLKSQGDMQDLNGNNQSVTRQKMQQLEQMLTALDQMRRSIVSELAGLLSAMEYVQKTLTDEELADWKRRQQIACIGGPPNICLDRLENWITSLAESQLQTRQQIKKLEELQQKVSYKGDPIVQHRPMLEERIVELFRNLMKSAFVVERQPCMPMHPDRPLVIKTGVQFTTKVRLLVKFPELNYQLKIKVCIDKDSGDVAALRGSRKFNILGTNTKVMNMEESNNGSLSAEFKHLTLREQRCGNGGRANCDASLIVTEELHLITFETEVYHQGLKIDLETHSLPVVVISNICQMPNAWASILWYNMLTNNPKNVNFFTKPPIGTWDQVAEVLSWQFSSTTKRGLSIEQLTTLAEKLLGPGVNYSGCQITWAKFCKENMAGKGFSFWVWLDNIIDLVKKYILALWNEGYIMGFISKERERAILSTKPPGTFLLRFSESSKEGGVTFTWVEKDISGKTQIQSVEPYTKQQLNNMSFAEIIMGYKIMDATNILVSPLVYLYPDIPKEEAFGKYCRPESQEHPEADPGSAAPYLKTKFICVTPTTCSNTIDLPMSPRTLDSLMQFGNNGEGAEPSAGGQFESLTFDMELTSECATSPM
In words: MSD-pSTAT-PBMC Assay (pSTAT3, IL-6 stimulated). The following applies: PBMC, compound 3 hrs, then 10 ng/mL IL-6 for 10 min; Table 115; read-out: STAT3. Format: cell-based. In short, it runs like this:
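Human PBMCs were pretreated with compound for 3 h, then stimulated with 10 ng/mL IL-6 for 10 min. Lysate pY705-STAT3 was measured by MSD sandwich immunoassay (anti-STAT3 capture) and corrected for unstimulated background. Signal was normalized to DMSO, and IC50 came from variable-slope regression.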
`CCCOC(=O)[C@H](C)NP(=O)(Oc1ccccc1)[C@H](F)c1ccc2sc(C(=O)N[C@H]3CCC[C@H]4CC[C@@H](C(=O)N5CC(c6cnccc6OCC)C5)N4C3=O)cc2c1` (stereo partly drawn) [Compound 484, propyl (((S)-(2-(((3S,6S,9aS)-3-(3-(4-ethoxypyridin-3-yl)azetidine-1-carbonyl)-5-oxooctahydro-1H-pyrrolo[1,2-a]azepin-6-yl)carbamoyl)benzo [b]thiophen-5-yl)fluoromethyl) (phenoxy)phosphoryl)-L-alaninate]: the IC50 was below 100 nM.
Under `CCCOC(=O)[C@H](C)NP(=O)(Oc1ccccc1)[C@@H](F)c1ccc2sc(C(=O)N[C@H]3CC[C@@H](CC)C[C@H]4CC[C@@H](C(=O)N5CC(c6cnccc6N6CCC6)C5)N4C3=O)cc2c1` (stereo partly drawn) [Compound 493, propyl (((R)-(2-(((3S,6S,9R,10aR)-3-(3-(4-(azetidin-1-yl)pyridin-3-yl)azetidine-1-carbonyl)-9-ethyl-5-oxodecahydropyrrolo [1,2-a]azocin-6-yl)carbamoyl)benzo [b]thiophen-5-yl)fluoromethyl) (phenoxy)phosphoryl)-L-alaninate] stands below 100 nM; under `CCCOC(=O)[C@H](C)NP(=O)(Oc1ccccc1)[C@@H](F)c1ccc2sc(C(=O)N[C@H]3CCC[C@H]4CC[C@@H](C(=O)N5CC(c6cnccc6OCC)C5)N4C3=O)cc2c1` (stereo partly drawn) [Compound 494, propyl (((R)-(2-(((3S,6S,9aS)-3-(3-(4-ethoxypyridin-3-yl)azetidine-1-carbonyl)-5-oxooctahydro-1H-pyrrolo[1,2-a]azepin-6-yl)carbamoyl)benzo [b]thiophen-5-yl)fluoromethyl) (phenoxy)phosphoryl)-L-alaninate], below 100 nM.
Under `CCOC(=O)[C@H](CC)NP(=O)(Cc1ccc2sc(C(=O)N[C@H]3CCC[C@H]4CC[C@@H](C(=O)N5CC(c6cccnc6)C5)N4C3=O)cc2c1)Oc1ccccc1` (stereo partly drawn) [Compound 944, ethyl (2S)-2-((((2-(((3S,6S,9aS)-5-oxo-3-(3-(pyridin-3-yl)azetidine-1-carbonyl)octahydro-1H-pyrrolo[1,2-a]azepin-6-yl)carbamoyl)benzo [b]thiophen-5-yl)methyl)(phenoxy)phosphoryl)amino) butanoate] stands 100 to 1000 nM; under `COC[C@H](NP(=O)(Cc1ccc2sc(C(=O)N[C@H]3CCC[C@H]4CC[C@@H](C(=O)N5CC(c6cccnc6)C5)N4C3=O)cc2c1)Oc1ccccc1)C(=O)OCC(C)C` (stereo partly drawn) [Compound 945, isobutyl O-methyl-N-(((2-(((3S,6S,9aS)-5-oxo-3-(3-(pyridin-3-yl)azetidine-1-carbonyl)octahydro-1H-pyrrolo[1,2-a]azepin-6-yl)carbamoyl)benzo [b]thiophen-5-yl)methyl)(phenoxy)phosphoryl)-L-serinate], 100 to 1000 nM; under `COC[C@H](NP(=O)(Cc1ccc2sc(C(=O)N[C@H]3CCC[C@H]4CC[C@@H](C(=O)N5CC(c6cccnc6)C5)N4C3=O)cc2c1)Oc1ccccc1)C(=O)OCc1ccccc1` (stereo partly drawn) [Compound 946, benzyl O-methyl-N-(((2-(((3S,6S,9aS)-5-oxo-3-(3-(pyridin-3-yl)azetidine-1-carbonyl)octahydro-1H-pyrrolo[1,2-a]azepin-6-yl)carbamoyl)benzo [b]thiophen-5-yl)methyl)(phenoxy)phosphoryl)-L-serinate], 100 to 1000 nM.
With `CC[C@H](NP(=O)(Cc1ccc2sc(C(=O)N[C@H]3CCC[C@H]4CC[C@@H](C(=O)N5CC(c6cccnc6)C5)N4C3=O)cc2c1)Oc1ccccc1)C(=O)OCC(C)C` (stereo partly drawn) [Compound 947, isobutyl (2S)-2-((((2-(((3S,6S,9aS)-5-oxo-3-(3-(pyridin-3-yl)azetidine-1-carbonyl)octahydro-1H-pyrrolo[1,2-a]azepin-6-yl)carbamoyl)benzo [b]thiophen-5-yl)methyl)(phenoxy)phosphoryl)amino) butanoate], the IC50 is below 100 nM.
For `CC(C)COC(=O)[C@@H](NP(=O)(Cc1ccc2sc(C(=O)N[C@H]3CCC[C@H]4CC[C@@H](C(=O)N5CC(c6cccnc6)C5)N4C3=O)cc2c1)Oc1ccccc1)C(C)C` (stereo partly drawn) [Compound 948, isobutyl (((2-(((3S,6S,9aS)-5-oxo-3-(3-(pyridin-3-yl)azetidine-1-carbonyl)octahydro-1H-pyrrolo[1,2-a]azepin-6-yl)carbamoyl)benzo [b]thiophen-5-yl)methyl) (phenoxy)phosphoryl)-L-valinate], the IC50 lay within 1000 to 3000 nM.
For `CCOC(=O)[C@@H](NP(=O)(Cc1ccc2sc(C(=O)N[C@H]3CCC[C@H]4CC[C@@H](C(=O)N5CC(c6cccnc6)C5)N4C3=O)cc2c1)Oc1ccccc1)C(C)C` (stereo partly drawn) [Compound 949, ethyl (((2-(((3S,6S,9aS)-5-oxo-3-(3-(pyridin-3-yl)azetidine-1-carbonyl)octahydro-1H-pyrrolo[1,2-a]azepin-6-yl)carbamoyl)benzo [b]thiophen-5-yl)methyl) (phenoxy)phosphoryl)-L-valinate] the value was 1000 to 3000 nM; for `CCCOC(=O)[C@H](C)NP(=O)(Oc1ccccc1)C(F)c1ccc2sc(C(=O)N[C@H]3CCCC[C@H]4CC[C@@H](C(=O)N5CC(OCC(F)F)(c6cccnc6)C5)N4C3=O)cc2c1` (stereo partly drawn) [Compound 950, propyl (((2-(((3S,6S,10aS)-3-(3-(2,2-difluoroethoxy)-3-(pyridin-3-yl)azetidine-1-carbonyl)-5-oxodeca-hydropyrrolo [1,2-a]azocin-6-yl)carbamoyl)benzo [b]thiophen-5-yl)fluoromethyl) (phenoxy)phosphoryl)-L-alaninate], below 100 nM.
Consider `CCCOC(=O)[C@H](C)NP(=O)(Cc1ccc2sc(C(=O)N[C@H]3CCC[C@H]4CC[C@@H](C(=O)N5CC(c6cnccc6C)C5)N4C3=O)cc2c1)Oc1ccccc1` (stereo partly drawn) [Compound 951, propyl (((2-(((3S,6S,9aS)-3-(3-(4-methylpyridin-3-yl)azetidine-1-carbonyl)-5-oxooctahydro-1H-pyrrolo[1,2-a]azepin-6-yl)carbamoyl)benzo [b]thiophen-5-yl)methyl) (phenoxy)phosphoryl)-L-alaninate], for which the IC50 was below 100 nM.
Under `CCCOC(=O)[C@H](C)NP(=O)(Oc1ccccc1)C(F)c1ccc2sc(C(=O)N[C@H]3CCC[C@H]4CC[C@@H](C(=O)N5CC6(C5)OCc5ccncc56)N4C3=O)cc2c1` (stereo partly drawn) [Compound 952, propyl ((fluoro(2-(((3S,6S,9aS)-5-oxo-3-(1′H-spiro [azetidine-3,3′-furo[3,4-c]pyridine]-1-carbonyl)octahydro-1H-pyrrolo[1,2-a]azepin-6-yl)carbamoyl)benzo [b]thiophen-5-yl)methyl) (phenoxy)phosphoryl)-L-alaninate] stands 100 to 1000 nM; under `CCCOC(=O)[C@H](C)NP(=O)(Oc1ccccc1)C(F)c1ccc2sc(C(=O)N[C@H]3CCC[C@H]4CC[C@@H](C(=O)N5CC(c6cc(F)ccc6OC)C5)N4C3=O)cc2c1` (stereo partly drawn) [Compound 957, propyl ((fluoro(2-(((3S,6S,9aS)-3-(3-(5-fluoro-2-methoxyphenyl)azetidine-1-carbonyl)-5-oxooctahydro-1H-pyrrolo[1,2-a]azepin-6-yl)carbamoyl)benzo [b]thiophen-5-yl)methyl)(phenoxy)phosphoryl)-L-alaninate], above 3000 nM.
